Experimental findings from paper PMC8523698, “Preclinical characterization of an intravenous coronavirus 3CL protease inhibitor for the potential treatment of COVID19” (Nature Communications, 2021) are described below.

Structures are written as SMILES.

For this experiment, the system named is SARS-CoV-2 Belgium/GHB-03021/2020 strain. In words: microbe, parasite or virus in culture. Format: cell-based. Set-up: Percent Effect: scale not given: direction of the effect not stated beside the values.

Turning to `COc1cccc2[nH]c(C(=O)N[C@@H](CC(C)C)C(=O)N[C@@H](C[C@@H]3CCNC3=O)C(=O)CO)cc12` [PF-00835231-00], the “Percent Effect” value turned out to be 0.59%.
